One experiment concerns sucrose loaded rat. Put plainly: Sucrose loaded rat model (SLM), antihyperglycemic activity. The experiment is classed as in vivo. As to conditions: for inhibition in vivo at 100 mg/kg: Rattus norvegicus, po, 2 h, read-out: % Fall in blood glucose levels, SLM. How it is done: Male albino rats of Charles Foster/Wistar strain of average body weight 160±20 g were selected for this study. The blood glucose level of each animal was checked by glucometer using glucostrips (Boehringer Mannheim) after 16 h starvation. Animals showing blood glucose levels between 3.33 to 4.44 mM (60 to 80 mg/dl) were divided into groups of five to six animals in each. Animals of experimental group were administered suspension of the desired synthetic compound orally (made in 1.0% gum acacia) at a dose of 100-mg/kg-body weight. Animals of control group were given an equal amount of 1.0% gum acacia. A sucrose load (10.0 g/kg) was given to each animal orally exactly after 30 min post administration of the test sample/vehicle. Blood glucose profile of each rat was again determined at 30, 60, 90 and 120 min post administration of sucrose by glucometer. Food but not water was withheld from the cages during the course of experimentation. Quantitative glucose tolerance of each animal was calculated by Area Under Curve (AUC) method (Prism Software). Comparing the AUC of experimental and control groups determined the percentage antihyperglycemic activity. Statistical comparison was made by Dunnett's test.

Experiment [1] has as its system db/db mice. Put plainly: Antihyperglycemic activity in db/db mice. The format is in vivo, mouse. As to conditions: for % Fall in blood glucose levels, 6 days: day 6; for % Fall in blood glucose levels, 10 days: day 10. The text has this: (§1) The db/db mouse is a well-characterized model of type II diabetes. The background for the db/db mouse is the C57BL/Ks strain. The major deficiency of the C57BL/KsBom-db mouse (db/db) is lack of a functional leptin receptor. This leads to defective leptin signaling and a complete lack of feedback from leptin. […] The db/db mouse develops NIDDM from around week 10. The disease is stable until week 20, where destruction of pancreatic β-cells can be recognized clinically as decreasing levels of plasma insulin and very severe hyperglycemia. The male mice are more diabetic than female and will normally die earlier. The advantage of using male mice for experimental purposes is that the fluctuations in plasma parameters are less than in the females where the estrogen cycles affects the clinical diabetes mellitus. The optimal age of db/db mice used for experiments will be from week 12 to 18 when they have developed NIDDM with diabetic dyslipidemia but still have functional β-cells in the pancreas. C57BL/KsBom-db mice 12-18 weeks, 40-50 g bred in the animal house of CDRI, Lucknow. 10 male mice were used in the experiments. The mice were housed in groups of 5 individuals in a room controlled for temperature (23+2° C.) and 12/12 hours light/dark cycle (lights on at 6.00 am). Body weight was measured daily from day 1 to day 10. All animals had free access to fresh water and to normal chow except on the days of the postprandial protocol day 6 and during the overnight fast before the OGTT on day 10. Blood glucose was checked every morning up till day 5. On day 6 postprandial protocol was employed, in this method blood glucose was checked at −0.30 min and 0 h. Test compounds were given to the treatment group whereas control group received only gum acacia (1.0%); the blood glucose was again checked at 1, 2, 3, 4 and 6 h post test compound treatment. Finally on day 10 an oral glucose tolerance test (OGTT) was performed after an overnight fasting. Blood glucose was measured at −0.30 min and test drugs were fed, blood glucose was again measured at 0.0 min post treatment, at this juncture glucose solution was given at a dose of 3 gm/kg to all the groups including control group; the profile of blood glucose was checked at 30 min, 60 min, 90 min and 120 min post glucose administration. Quantitative glucose tolerance of each animal was calculated by Area Under Curve (AUC) method (Prism Software). Comparing the AUC of experimental and control groups determined the percentage antihyperglycemic activity. Statistical comparison was made by Dunnett's test.

The subject of experiment [2] is db/db mice. In words: Antidyslipidemic activity in db/db mice. The experiment is classed as in vivo, mouse. The conditions noted are these: for % Fall in lipid levels HDL: HDL-cholesterol; for % Fall in lipid levels HDL / % Fall in lipid levels Chol.: + marks a rise; for % Fall in lipid levels Chol.: cholesterol; for % Fall in lipid levels TG: triglycerides.
From the text: as §1
Cholesterol and triglycerides were estimated using the same procedures as given above.
HDL-Cholesterol was estimated using the kit provided by the Roche Diagnostics. Cholestest N HDL is a liquid reagent that directly measures the HDL-cholesterol concentration in serum by a new method that is based on the selective solubilising effect of proprietary detergent to the different lipoproteins. In the assay system, only HDL is solubilised by a special detergent; other lipoproteins are not disrupted. After HDL is selectively disrupted, HDL cholesterol is measured enzymatically (Gordon, T.; Casstelli, W. P.; Hjortland, M. C.; Kannel, W. B.; Dawber, T. R. High density lipoproteins as a protective factor against coronary heart disease, Am. J. Med. 1977, 62, 707-714.).

Experiment [3] concerns streptozotocin-induced diabetic rats. Put plainly: Sucrose-challenged streptozotocin-induced diabetic rats (STZ-S). The format is in vivo, rat. As to conditions: for % Fall in blood glucose levels, STZ-S 5 h / % Fall in blood glucose levels, STZ-S 24 h: 100 mg/kg oral. How it is done: Male albino rats of Sprague Dawley strain of body weight 160+20 g were selected for this study. Streptozotocin (Sigma, USA) was dissolved in 100 mM citrate buffer pH 4.5 and calculated amount of the fresh solution was injected to overnight fasted rats (45 mg/kg) intraperitoneally. Blood glucose level was checked 48 h later by glucostrips and animals showing blood glucose values between 144 to 270 mg/dl (8 to 15 mM) were included in the experiment and termed diabetic. The diabetic animals were divided into groups consisting of five to six animals in each group. Animals of experimental groups were administered suspension of the desired test samples orally (made in 1.0% gum acacia) at a dose of 100-mg/kg-body weight. Animals of control group were given an equal amount of 1.0% gum acacia. A sucrose load of 2.5-g/kg body weight was given after 30 minutes of compound administration. After 30 minutes of post sucrose load blood glucose level was again checked by glucostrips at 30, 60, 90, 120, 180, 240, 300 min and at 24 h, respectively. Animals not found diabetic after 24 hours post treatment of the test sample were not considered and omitted from the calculations and termed as non-responders. […] Food but not water was withheld from the cages during the experimentation. Comparing the AUC of experimental and control groups determined the percent antihyperglycemic activity. Statistical comparison between groups was made by Student's ‘t’ test.
As depicted in the FIGURE, a dose response curve of 34 was obtained by administering different doses of test compound to streptozotocin-induced diabetic rats (Table 6). […]

Values joined by “and” are separate entries in the source; they are usually repeats but may differ in a detail not shown here. Equal values may be shown once. Marks after values point to notes of the source that are not given here.

For the compound `CC(C)(C)NCC(O)COc1ccc2c(=O)cc(-c3cc(OCc4ccccc4)cc(OCc4ccccc4)c3)oc2c1` (centres unmarked) [Compound 34, 7-(3-tert-Butylamino-2-hydroxy-propoxy)-3′,5′-dibenzyloxy-flavone], the inhibition in vivo at 100 mg/kg in the experiment on sucrose loaded rat is 29.4%. Moreover, in the experiment on db/db mice [1], the “% Fall in blood glucose levels, 6 days” value is 26.4%. For the same compound, in the experiment with db/db mice [1], the “% Fall in blood glucose levels, 10 days” value is 57.1%. The “% Fall in lipid levels HDL” value in the experiment with db/db mice [2] was “+19.3%”. Besides, in the experiment with db/db mice [2], the “% Fall in lipid levels Chol.” value is recorded as “+26.9%”. In the experiment on db/db mice [2], the “% Fall in lipid levels TG” value is given as 33.5%. In addition, the “% Fall in blood glucose levels, STZ-S 5 h” value (shortened to “% Fall … STZ-S 5 h”) in experiment [3] is listed as 21.6** %. Besides, the “% Fall in blood glucose levels, STZ-S 24 h” value (from here on “% Fall … STZ-S 24 h”) in experiment [3] is on record as 28.7** %. The “% Fall in blood glucose levels 5 h” value in experiment [3] (Dose 25, 5 h) is listed as 11.1%; in experiment [3] (Dose 50, 5 h), 9.62%; in experiment [3] (Dose 100, 5 h), 19.8%; in experiment [3] (Dose 150, 5 h), 24.3%; in experiment [3] (Dose 200, 5 h) it was 38.1%; in experiment [3] (Dose 250, 5 h) it was 40.7%. Moreover, the “% Fall in blood glucose levels 24 h” value came out at 13.6% in experiment [3] (Dose 25, 24 h); 13.8% in experiment [3] (Dose 50, 24 h); 21.9% in experiment [3] (Dose 100, 24 h); 30.5% in experiment [3] (Dose 150, 24 h); 37.0% in experiment [3] (Dose 200, 24 h); 45.5% in experiment [3] (Dose 250, 24 h). Further, the 50% effect level in experiment [3] (Rattus norvegicus, STZ-S model, dose response) (ED50) was put at a dose of 90 mg/kg.
Regarding `COc1cc(-c2cc(=O)c3ccc(OCCCOc4ccc(C=C5SC(=O)NC5=O)cc4)cc3o2)cc(OC)c1OC` [Compound 65, 7-{3-[4-(thiazolidin-2,4-dione-5-ylidinemethyl)-phenoxy]-propoxy}-3′,4′,5′-trimethoxy-flavone], the “% Fall in blood glucose levels, SLM” value with sucrose loaded rat (100 mg/kg oral, AUC vs control) is on record as 29.30%. In addition, the “Antihyperglycemic (glucose lowering) activity in words” value in the experiment on sucrose loaded rat (SLM as well as STZ model) is “significant and consistent glucose lowering activity”. Further, in the experiment on db/db mice [1], the “% Fall in blood glucose levels, 6 days” value turned out to be 19.1% and the “% Fall in blood glucose levels, 10 days” value was determined as 21.4%. Further, in the experiment with db/db mice [2], the “% Fall in lipid levels HDL” value worked out at 35.2%, the “% Fall in lipid levels Chol.” value was 1.06% and the “% Fall in lipid levels TG” value turned out to be 19.1%. In addition, in experiment [3], the “% Fall … STZ-S 5 h” value is 16.1% and the “% Fall … STZ-S 24 h” value worked out at 11.0%.
In the case of `CC(C)NCC(O)COc1ccc2c(=O)cc(-c3cc(O)cc(O)c3)oc2c1` (centres unmarked) [Compound 49, 3′,5′-Dihydroxy-7-(2-hydroxy-3-iso-propylamino-propoxy)-flavone], in the experiment with sucrose loaded rat, the inhibition in vivo at 100 mg/kg came out at 29%. In addition, in the experiment with db/db mice [1], the “% Fall in blood glucose levels, 6 days” value turned out to be 9.38%; the “% Fall in blood glucose levels, 10 days” value was 20.8% and 20.5%. For the same compound, in the experiment with db/db mice [2], the “% Fall in lipid levels HDL” value is “+12.7%”, the “% Fall in lipid levels Chol.” value came out at 17.2% and the “% Fall in lipid levels TG” value was determined as 24.1%. In addition, in experiment [3], the “% Fall … STZ-S 5 h” value is given as 26.9** % and the “% Fall … STZ-S 24 h” value is on record as 13.2* %.
